The source of these data is US6362369B1, “Phthalic acid diamide derivatives fluorine-containing aniline compounds as starting material, agricultural and horticultural insecticides, and a method for application of the insecticides” (Nihon Nohyaku Co., Ltd., priority 1997, dated 2002).

What all share (type): in vivo
The test system of experiment [1] is diamondback moth (Plutella xylostella). As to the kind of experiment: Insecticidal effect on diamondback moth (Test Example 1). As to conditions: diamondback moth; mortality judged by criterion of Test Example 1. The essentials:
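Triplicate groups of 10 insects were scored: six days after immersion of oviposited Chinese cabbage seedlings and holding at 25 °C post air-drying, hatched larvae were counted. Mortality derived from these counts and insecticidal effect judged by a set criterion.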

The subject of experiment [2] is rice leafroller (Cnaphalocrocis medinalis). As to the kind of experiment: Insecticidal effect on rice leafroller (Test Example 3). As to conditions: rice leafroller third-instar larvae; rice lamina immersed, 500 ppm; four days after inoculation; 25° C., humidity 70%. The essentials: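 Insecticidal effect is judged by a predefined criterion from dead/alive counts four days after infesting air-dried lamina with third-instar larvae, kept on moistened filter paper at 25° C, 70% humidity.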

The test system of experiment [3] is common cutworm (Spodoptera Litura). As to the kind of experiment: Insecticidal effect on common cutworm (Test Example 2). The following applies: common cutworm second-instar larvae; cabbage leaf immersed, 500 ppm; eight days after inoculation; 25° C. The method, boiled down: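 Air-dried treated material was placed in a closed dish with second-instar larvae and held at 25° C. Dead and live insects were counted eight days after inoculation, and mortality was calculated and scored against a fixed insecticidal-effect criterion. Three replicate groups of 10 insects were used.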

Turning to `Cc1cc(OC(F)(F)C(F)F)ccc1NC(=O)c1ccc(I)cc1C(=O)NC(C)C` [compound 1248], the “Insecticidal effect, Test Example 1” value in experiment [1] was “A (100)”. For the same molecule, the “Insecticidal effect, Test Example 3” value in experiment [2] is recorded as “A (100)”. Moreover, in experiment [3], the “Insecticidal effect, Test Example 2” value is on record as “A (100)”.
`Cc1cc(C(F)(C(F)(F)F)C(F)(F)F)ccc1NC(=O)c1ccc(I)cc1C(=O)NC(C)C` [compound 1250]: in experiment [1], the “Insecticidal effect, Test Example 1” value is “A (100)”. The “Insecticidal effect, Test Example 3” value in experiment [2] was “A (100)”. In experiment [3], the “Insecticidal effect, Test Example 2” value was “A (100)”.
For `Cc1cc(C(F)(C(F)(F)F)C(F)(F)F)ccc1NC(=O)c1cc(I)ccc1C(=O)NC(C)C` [compound 1251], in experiment [1], the “Insecticidal effect, Test Example 1” value is given as “A (100)”. The “Insecticidal effect, Test Example 3” value in experiment [2] is recorded as “A (100)”. Besides, the “Insecticidal effect, Test Example 2” value in experiment [3] is listed as “A (100)”.
Consider `Cc1cc(C(F)(C(F)(F)F)C(F)(F)F)ccc1NC(=O)c1ccc(F)c(Cl)c1C(=O)NC(C)(C)C` [compound 1263], for which the “Insecticidal effect, Test Example 1” value in experiment [1] is recorded as “A (100)”. In addition, the “Insecticidal effect, Test Example 3” value in experiment [2] is “A (100)”. Also, the “Insecticidal effect, Test Example 2” value in experiment [3] was “A (100)”.
On to `CCN(CC)C(=O)c1c(C(=O)Nc2ccc(C(F)(C(F)(F)F)C(F)(F)F)cc2C)ccc(F)c1Cl` [compound 1264], for which, in experiment [1], the “Insecticidal effect, Test Example 1” value is listed as “A (100)”. Also, the “Insecticidal effect, Test Example 3” value in experiment [2] was “A (100)”. For the same molecule, in experiment [3], the “Insecticidal effect, Test Example 2” value is “A (100)”.
In the case of `Cc1cc(C(F)(F)C(F)(F)F)ccc1NC(=O)c1ccc(Cl)cc1C(=O)NC(C)C` [compound 1277], the “Insecticidal effect, Test Example 1” value in experiment [1] was “A (100)”. Besides, the “Insecticidal effect, Test Example 3” value in experiment [2] is given as “A (100)”. Also, in experiment [3], the “Insecticidal effect, Test Example 2” value is “A (100)”.
As for `Cc1cc(C(F)(F)C(F)(F)F)ccc1NC(=O)c1ccc(Cl)cc1C(=O)NC(C)(C)C` [compound 1278], the “Insecticidal effect, Test Example 1” value in experiment [1] was “A (100)”. For the same molecule, the “Insecticidal effect, Test Example 3” value in experiment [2] is “A (100)”. The “Insecticidal effect, Test Example 2” value in experiment [3] is “A (100)”.
Turning to `CCN(CC)C(=O)c1cc(Cl)ccc1C(=O)Nc1ccc(C(F)(F)C(F)(F)F)cc1C` [compound 1280], in experiment [1], the “Insecticidal effect, Test Example 1” value is recorded as “A (100)”. Also, the “Insecticidal effect, Test Example 3” value in experiment [2] is recorded as “A (100)”. For the same molecule, the “Insecticidal effect, Test Example 2” value in experiment [3] is on record as “A (100)”.
With `Cc1cc(OC(F)(F)F)ccc1NC(=O)c1cc(F)c(F)cc1C(=O)NC(C)C` [compound 1287], in experiment [1], the “Insecticidal effect, Test Example 1” value is “A (100)”. For the same molecule, in experiment [2], the “Insecticidal effect, Test Example 3” value is reported as “A (100)”. Besides, in experiment [3], the “Insecticidal effect, Test Example 2” value is recorded as “A (100)”.
Turning to `Cc1cc(C(F)(F)C(F)(F)F)ccc1NC(=O)c1ccccc1C(=O)NC(C)CO` (stereo not drawn) [compound 1294], the “Insecticidal effect, Test Example 1” value in experiment [1] was “A (100)”. In addition, in experiment [2], the “Insecticidal effect, Test Example 3” value is “A (100)”. The “Insecticidal effect, Test Example 2” value in experiment [3] is “A (100)”.
Take `COc1ccc(-c2ccccc2)cc1NC(=O)c1c(Cl)cccc1C(=O)NC(C)C` [compound 1295]: the “Insecticidal effect, Test Example 1” value in experiment [1] is given as “A (100)”. In experiment [2], the “Insecticidal effect, Test Example 3” value is on record as “A (100)”. Besides, the “Insecticidal effect, Test Example 2” value in experiment [3] is listed as “A (100)”.
As for `COc1ccc(-c2ccccc2)cc1NC(=O)c1cccc(Cl)c1C(=O)NC(C)C` [compound 1296], the “Insecticidal effect, Test Example 1” value in experiment [1] is “A (100)”. In experiment [2], the “Insecticidal effect, Test Example 3” value is “A (100)”. Also, the “Insecticidal effect, Test Example 2” value in experiment [3] is listed as “A (100)”.
Regarding `CCCNC(=O)c1cccc(Cl)c1C(=O)Nc1cc(-c2ccccc2)ccc1OC` [compound 1297], the “Insecticidal effect, Test Example 1” value in experiment [1] is given as “A (100)”. Moreover, the “Insecticidal effect, Test Example 3” value in experiment [2] is listed as “A (100)”. Moreover, the “Insecticidal effect, Test Example 2” value in experiment [3] is on record as “A (100)”.
With `Cc1cc(C(F)(F)C(F)(F)F)ccc1NC(=O)c1cccc(Cl)c1C(=O)NC(C)CO` (stereo not drawn) [compound 1298], the “Insecticidal effect, Test Example 1” value in experiment [1] is given as “A (100)”. Besides, the “Insecticidal effect, Test Example 3” value in experiment [2] is on record as “A (100)”. Further, the “Insecticidal effect, Test Example 2” value in experiment [3] is “A (100)”.
Take `CCC(CO)NC(=O)c1ccccc1C(=O)Nc1ccc(C(F)(F)C(F)(F)F)cc1C` (stereo not drawn) [compound 1299]: in experiment [1], the “Insecticidal effect, Test Example 1” value is given as “A (100)”. In addition, the “Insecticidal effect, Test Example 3” value in experiment [2] is “A (100)”. In addition, the “Insecticidal effect, Test Example 2” value in experiment [3] is listed as “A (100)”.
As to `Cc1cc(C(F)(F)C(F)(F)F)ccc1NC(=O)c1cccc(I)c1C(=O)NC(C)CO` (stereo not drawn) [compound 1300], the “Insecticidal effect, Test Example 1” value in experiment [1] was “A (100)”. For the same molecule, the “Insecticidal effect, Test Example 3” value in experiment [2] is listed as “A (100)”. For the same molecule, the “Insecticidal effect, Test Example 2” value in experiment [3] is listed as “A (100)”.
Regarding `CCCNC(=O)c1c(I)cccc1C(=O)Nc1ccc(C(F)(F)C(F)(F)F)cc1C` [compound 1303], in experiment [1], the “Insecticidal effect, Test Example 1” value is reported as “A (100)”. Further, the “Insecticidal effect, Test Example 3” value in experiment [2] is “A (100)”. The “Insecticidal effect, Test Example 2” value in experiment [3] is reported as “A (100)”.
Regarding `Cc1cc(C#CC(C)(C)C)ccc1NC(=O)c1cccc(I)c1C(=O)NC(C)C` [compound 1305], the “Insecticidal effect, Test Example 1” value in experiment [1] is “A (100)”. The “Insecticidal effect, Test Example 3” value in experiment [2] is “A (100)”. In addition, in experiment [3], the “Insecticidal effect, Test Example 2” value is “A (100)”.
With `Cc1cc(C(F)(F)C(F)(F)F)ccc1NC(=O)c1cccc(Cl)c1C(=O)NCc1ccccc1` [compound 1307], in experiment [1], the “Insecticidal effect, Test Example 1” value is recorded as “A (100)”. Besides, the “Insecticidal effect, Test Example 3” value in experiment [2] is given as “A (100)”. In addition, in experiment [3], the “Insecticidal effect, Test Example 2” value is “A (100)”.
With `Cc1cc(C(F)(F)C(F)(F)F)ccc1NC(=O)c1cccc(Cl)c1C(=O)NCc1ccccc1Cl` [compound 1309], in experiment [1], the “Insecticidal effect, Test Example 1” value is “A (100)”. Also, the “Insecticidal effect, Test Example 3” value in experiment [2] is recorded as “A (100)”. In addition, the “Insecticidal effect, Test Example 2” value in experiment [3] is on record as “A (100)”.
`CNC(=O)c1c(I)cccc1C(=O)Nc1ccc(C(F)(F)C(F)(F)F)cc1C` [compound 1311]: the “Insecticidal effect, Test Example 1” value in experiment [1] is reported as “A (100)”. Besides, the “Insecticidal effect, Test Example 3” value in experiment [2] is on record as “A (100)”. Moreover, in experiment [3], the “Insecticidal effect, Test Example 2” value was “A (100)”.
`CCNC(=O)c1c(I)cccc1C(=O)Nc1ccc(C(F)(F)C(F)(F)F)cc1C` [compound 1313]: the “Insecticidal effect, Test Example 1” value in experiment [1] is listed as “A (100)”. Further, in experiment [2], the “Insecticidal effect, Test Example 3” value was “A (100)”. For the same molecule, the “Insecticidal effect, Test Example 2” value in experiment [3] is recorded as “A (100)”.
Take `CCNC(=O)c1cccc(I)c1C(=O)Nc1ccc(C(F)(F)C(F)(F)F)cc1C` [compound 1314]: the “Insecticidal effect, Test Example 1” value in experiment [1] was “A (100)”. Further, in experiment [2], the “Insecticidal effect, Test Example 3” value is reported as “A (100)”. In addition, the “Insecticidal effect, Test Example 2” value in experiment [3] is listed as “A (100)”.
As to `Cc1cc(C(F)(F)C(F)(F)F)ccc1NC(=O)c1cccc(Cl)c1C(=O)NCC(C)O` (stereo not drawn) [compound 1315], the “Insecticidal effect, Test Example 1” value in experiment [1] is recorded as “A (100)”. Further, the “Insecticidal effect, Test Example 3” value in experiment [2] was “A (100)”. In addition, the “Insecticidal effect, Test Example 2” value in experiment [3] is “A (100)”.
With `CCC(CO)NC(=O)c1c(Cl)cccc1C(=O)Nc1ccc(C(F)(F)C(F)(F)F)cc1C` (stereo not drawn) [compound 1316], the “Insecticidal effect, Test Example 1” value in experiment [1] is reported as “A (100)”. Further, in experiment [2], the “Insecticidal effect, Test Example 3” value is listed as “A (100)”. The “Insecticidal effect, Test Example 2” value in experiment [3] is “A (100)”.
For `Cc1cc(C(F)(F)C(F)(F)F)ccc1NC(=O)c1cccc(Cl)c1C(=O)NC(C)(C)CO` [compound 1317], in experiment [1], the “Insecticidal effect, Test Example 1” value is given as “A (100)”. Also, in experiment [2], the “Insecticidal effect, Test Example 3” value is “A (100)”. Also, in experiment [3], the “Insecticidal effect, Test Example 2” value is listed as “C (89-80)”.
